In brackets after ≈: the same amount, converted by molar mass. Activity calls are given as the source filed them. No cut-off for these calls is given here.
Key:
[1] = target: Cytochrome P450 2C9 (Homo sapiens, UniProt P11712); assay: Inhibition of human recombinant CYP2C9; format: ADME
[2] = system: Saccharomyces cerevisiae; assay: Fungistatic activity against Saccharomyces cerevisiae ATCC 24657 assessed as cell growth at 100 uM after 48 hrs by spectrophotometric bioassay; format: functional, organism-based
[3] = target: Cytochrome P450 2D6 (Homo sapiens, UniProt P10635); assay: Inhibition of human recombinant CYP2D6; format: ADME
Cytochrome P450 2D6, sequence (P10635 whole entry): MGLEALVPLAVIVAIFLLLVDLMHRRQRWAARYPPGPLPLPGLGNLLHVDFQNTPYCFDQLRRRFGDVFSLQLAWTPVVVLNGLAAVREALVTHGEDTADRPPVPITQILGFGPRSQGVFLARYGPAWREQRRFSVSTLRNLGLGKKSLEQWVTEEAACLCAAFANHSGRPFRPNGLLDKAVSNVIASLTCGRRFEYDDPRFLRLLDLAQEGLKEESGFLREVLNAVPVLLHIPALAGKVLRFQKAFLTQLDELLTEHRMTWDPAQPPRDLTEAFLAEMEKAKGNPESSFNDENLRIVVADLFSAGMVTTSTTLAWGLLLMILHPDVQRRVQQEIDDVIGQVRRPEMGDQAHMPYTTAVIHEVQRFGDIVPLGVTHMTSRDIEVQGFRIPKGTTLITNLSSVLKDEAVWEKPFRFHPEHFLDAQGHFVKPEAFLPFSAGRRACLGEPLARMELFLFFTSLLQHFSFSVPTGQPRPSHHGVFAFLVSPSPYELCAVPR

[4] = system: Saccharomyces cerevisiae; assay: Fungistatic activity against Saccharomyces cerevisiae ATCC 24657 assessed as cell proliferation at 100 uM after 24 hrs by agar plate bioassay relative to control; format: functional; conditions: ATCC 24657, 24 h
[5] = target: Cytochrome P450 2C19 (Homo sapiens, UniProt P33261); assay: Inhibition of human recombinant CYP2C19; format: ADME
Cytochrome P450 2C19, sequence (P33261 whole entry): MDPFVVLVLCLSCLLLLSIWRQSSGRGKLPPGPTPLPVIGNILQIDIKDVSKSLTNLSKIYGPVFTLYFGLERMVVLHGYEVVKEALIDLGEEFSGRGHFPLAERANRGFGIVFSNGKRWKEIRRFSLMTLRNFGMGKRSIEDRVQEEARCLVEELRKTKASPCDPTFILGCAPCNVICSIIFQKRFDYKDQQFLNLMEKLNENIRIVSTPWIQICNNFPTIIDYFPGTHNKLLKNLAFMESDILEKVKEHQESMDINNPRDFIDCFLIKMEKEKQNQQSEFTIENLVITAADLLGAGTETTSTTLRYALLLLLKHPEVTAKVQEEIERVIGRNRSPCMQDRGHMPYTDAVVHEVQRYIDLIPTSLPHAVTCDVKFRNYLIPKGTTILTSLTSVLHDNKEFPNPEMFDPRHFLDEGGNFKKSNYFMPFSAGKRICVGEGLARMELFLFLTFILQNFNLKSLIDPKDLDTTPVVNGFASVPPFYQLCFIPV

[6] = target: Cytochrome P450 3A4 (Homo sapiens, UniProt P08684); assay: Inhibition of human recombinant CYP3A4; format: ADME
Cytochrome P450 3A4, sequence (P08684 whole entry): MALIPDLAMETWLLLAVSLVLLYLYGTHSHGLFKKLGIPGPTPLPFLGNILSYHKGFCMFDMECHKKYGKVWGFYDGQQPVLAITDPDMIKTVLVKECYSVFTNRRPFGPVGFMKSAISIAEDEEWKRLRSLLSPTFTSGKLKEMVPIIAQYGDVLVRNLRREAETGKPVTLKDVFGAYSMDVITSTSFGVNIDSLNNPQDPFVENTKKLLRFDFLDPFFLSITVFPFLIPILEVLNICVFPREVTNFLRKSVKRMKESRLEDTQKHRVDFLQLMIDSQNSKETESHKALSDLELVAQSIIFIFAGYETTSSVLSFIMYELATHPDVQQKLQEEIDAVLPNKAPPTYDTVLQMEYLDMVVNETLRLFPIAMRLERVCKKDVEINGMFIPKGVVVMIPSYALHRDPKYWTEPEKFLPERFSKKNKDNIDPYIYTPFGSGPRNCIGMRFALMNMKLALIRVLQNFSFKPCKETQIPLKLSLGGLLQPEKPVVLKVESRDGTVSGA

[7] = system: Saccharomyces cerevisiae; assay: Antifungal activity against Saccharomyces cerevisiae ATCC 24657 assessed as growth inhibition after 24 to 48 hrs by agar plate bioassay; format: functional
[8] = system: Candida albicans; assay: Antifungal activity against Candida albicans ATCC 32032 assessed as growth inhibition after 24 to 48 hrs by agar plate bioassay; format: functional
[9] = system: Saccharomyces cerevisiae; assay: Fungistatic activity against Saccharomyces cerevisiae ATCC 24657 assessed as cell proliferation at 100 uM after 24 hrs by spectrophotometric bioassay; format: functional, organism-based
[10] = target: T1, Cytochrome P450 1A2 (Homo sapiens, UniProt P05177); assay: Inhibition of human recombinant CYP1A2; format: ADME
T1 sequence (P05177 whole entry): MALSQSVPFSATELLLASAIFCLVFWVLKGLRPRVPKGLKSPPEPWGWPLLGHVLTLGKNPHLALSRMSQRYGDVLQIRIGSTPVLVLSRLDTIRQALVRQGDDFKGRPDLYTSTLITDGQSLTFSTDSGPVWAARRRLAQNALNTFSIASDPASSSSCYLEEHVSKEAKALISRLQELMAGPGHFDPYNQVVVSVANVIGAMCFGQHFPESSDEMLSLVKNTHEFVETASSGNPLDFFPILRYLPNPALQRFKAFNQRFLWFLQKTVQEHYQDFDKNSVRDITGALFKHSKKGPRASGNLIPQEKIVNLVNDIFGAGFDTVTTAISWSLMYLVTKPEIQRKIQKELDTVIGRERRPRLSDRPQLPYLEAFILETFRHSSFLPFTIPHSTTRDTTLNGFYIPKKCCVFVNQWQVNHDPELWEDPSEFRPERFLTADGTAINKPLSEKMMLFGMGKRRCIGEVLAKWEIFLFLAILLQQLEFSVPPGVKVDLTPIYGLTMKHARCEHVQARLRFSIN

[11] = system: Saccharomyces cerevisiae; assay: Antifungal activity against Saccharomyces cerevisiae ATCC 24657 assessed as growth inhibition at 90.7 uM after 24 hrs by spectrophotometric bioassay; format: functional, organism-based
[12] = system: Saccharomyces cerevisiae; assay: Fungistatic activity against Saccharomyces cerevisiae ATCC 24657 assessed as cell proliferation at 90.7 uM after 24 hrs by agar plate bioassay relative to control; format: functional; conditions: ATCC 24657, 24 h
[13] = system: Candida albicans; assay: Antifungal activity against Candida albicans assessed as morphogenetic transformation after 3 hrs by phase-contrast microscopy; format: functional
[14] = system: Saccharomyces cerevisiae; assay: Fungistatic activity against Saccharomyces cerevisiae ATCC 24657 assessed as cell proliferation at 90.7 uM after 24 hrs by spectrophotometric bioassay; format: functional, organism-based
[15] = system: Saccharomyces cerevisiae; assay: Antifungal activity against Saccharomyces cerevisiae ATCC 24657 assessed as growth inhibition at 90.7 uM after 24 hrs by agar plate bioassay; format: functional, organism-based
[16] = system: Saccharomyces cerevisiae; assay: Fungistatic activity against Saccharomyces cerevisiae ATCC 24657 assessed as cell growth at 90.7 uM after 48 hrs by spectrophotometric bioassay; format: functional, organism-based
[17] = system: Saccharomyces cerevisiae; assay: Antifungal activity against Saccharomyces cerevisiae ATCC 24657 assessed as growth at 90.7 uM after 48 hrs by spectrophotometric bioassay relative to control; format: functional
[18] = system: Saccharomyces cerevisiae; assay: Antifungal activity against Saccharomyces cerevisiae ATCC 24657 assessed as growth at 90.7 uM after 48 hrs by agar plate bioassay relative to control; format: functional
[19] = system: Saccharomyces cerevisiae; assay: Antifungal activity against Saccharomyces cerevisiae ATCC 24657 assessed as growth inhibition after 24 to 48 hrs by spectrophotometric bioassay; format: functional
[20] = system: Saccharomyces cerevisiae; assay: Antifungal activity against Saccharomyces cerevisiae ATCC 24657 assessed as growth inhibition at 31.2 uM after 24 to 48 hrs by agar plate bioassay; format: functional, organism-based
[21] = system: Saccharomyces cerevisiae; assay: Fungistatic activity against Saccharomyces cerevisiae ATCC 24657 assessed as cell proliferation compound after 24 to 48 hrs by agar plate bioassay; format: functional, organism-based
[22] = system: Saccharomyces cerevisiae; assay: Antifungal activity against Saccharomyces cerevisiae ATCC 24657 assessed as growth inhibition at 31.2 uM after 24 to 48 hrs by spectrophotometric bioassay; format: functional, organism-based
[23] = system: Saccharomyces cerevisiae; assay: Fungistatic activity against Saccharomyces cerevisiae ATCC 24657 assessed as cell proliferation compound after 24 to 48 hrs by spectrophotometric bioassay; format: functional, organism-based

Cytochrome P450 2C9, sequence (P11712 whole entry): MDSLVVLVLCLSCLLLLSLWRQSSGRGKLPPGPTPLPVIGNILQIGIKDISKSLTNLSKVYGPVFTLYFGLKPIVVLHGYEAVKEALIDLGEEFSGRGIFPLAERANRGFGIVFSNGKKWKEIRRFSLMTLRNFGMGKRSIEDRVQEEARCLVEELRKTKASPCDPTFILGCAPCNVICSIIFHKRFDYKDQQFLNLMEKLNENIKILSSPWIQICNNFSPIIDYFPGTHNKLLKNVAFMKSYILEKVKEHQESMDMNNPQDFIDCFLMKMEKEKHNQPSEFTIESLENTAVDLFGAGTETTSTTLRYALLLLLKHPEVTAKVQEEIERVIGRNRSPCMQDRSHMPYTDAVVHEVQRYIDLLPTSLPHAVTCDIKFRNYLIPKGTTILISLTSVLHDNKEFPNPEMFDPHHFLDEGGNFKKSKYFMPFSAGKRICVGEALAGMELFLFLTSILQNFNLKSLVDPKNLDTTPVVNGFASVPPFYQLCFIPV

Q: `COc1ccc(-c2sc(/N=C/c3ccc(N(C)CCC#N)cc3)c(C#N)c2C)cc1OC` was tested. Which IC50 [1] did it give?
A: Its IC50 is 1.2 µM.

Q: And the Activity [2]?
A: The Activity was “inactive”.

Q: What about the IC50 [3] of the same compound?
A: The IC50 was 23.3 µM.

Q: And the inhibition at 100 µM [4]?
A: Its inhibition at 100 µM is 95%.

Q: What about the IC50 [5] of the same compound?
A: The IC50 was 1.1 µM.

Q: And the IC50 [6]?
A: The IC50 was 33.2 µM.

Q: What about the MIC [7] of the same compound?
A: Its MIC is 118 µM (≈ 52.5 µg/mL).

Q: What about the MIC50 [7] of the same compound?
A: Its MIC50 is 2.7 µM (≈ 1.2 µg/mL).

Q: What about the MIC [8] of the same compound?
A: The MIC was 12 µM (≈ 5.33 µg/mL).

Q: What about the Activity [9] of the same compound?
A: The Activity was “Active”.

Q: And the IC50 [10]?
A: The IC50 was 11.9 µM.

Q: How did the MIC [7] turn out when `CSc1sc(C(=O)N2CCC3(CCN(C(=O)CNC(=O)c4ccco4)CC3)C2)c2c1C(=O)CCC2` was run?
A: Its MIC is > 200 µM.

Q: `Cc1ccc(C(=O)N(C)Cc2ccco2)c(C2CCN(C(=O)/C=C/c3cccs3)CC2)n1` was tested. Which MIC [7] did it give?
A: Its MIC is > 200 µM.

Q: With `CCC(C)n1ncn(-c2ccc(N3CCN(c4ccc(OCC5COC(Cn6cncn6)(c6ccc(Cl)cc6Cl)O5)cc4)CC3)cc2)c1=O` (stereo unspecified) [ITRACONAZOLE] as the compound, how does the “growth inhibition (GI)” value [11] read?
A: The value was “inactive”.

Q: What about the inhibition at 90.7 µM [12] of the same compound?
A: The inhibition at 90.7 µM was 95%.

Q: And the MIC [13]?
A: Its MIC is > 90.7 µM.

Q: What about the Activity [14] of the same compound?
A: Its Activity is “Active”.

Q: What about the “growth inhibition (GI)” value [15] of the same compound?
A: Its value is “inactive”.

Q: What about the Activity [16] of the same compound?
A: Its Activity is “inactive”.

Q: What about the “fold change (FC)” value [17] of the same compound?
A: Its value is 1.5.

Q: What about the “fold change (FC)” value [18] of the same compound?
A: The value was 1.5.

Q: With `COc1ccc(-c2sc(/N=C/c3ccc(-c4ccccc4)cc3)c(C#N)c2C)cc1OC` as the compound, how does the IC50 [1] read?
A: The IC50 was 1.4 µM.

Q: And the IC50 [3]?
A: Its IC50 is > 100 µM.

Q: What about the IC50 [5] of the same compound?
A: Its IC50 is 2.3 µM.

Q: And the IC50 [6]?
A: The IC50 was > 100 µM.

Q: What about the MIC [8] of the same compound?
A: The MIC was 8 µM (≈ 3.51 µg/mL).

Q: And the IC50 [10]?
A: The IC50 was 26 µM.

Q: `COc1nc2c(c(-c3ccc[nH]3)c1C#N)Cc1ccccc1-2` was tested. Which MIC [7] did it give?
A: The MIC was > 200 µM.

Q: For `N#C/C(=C\c1ccc(C(F)(F)F)cc1)c1ccc(OCc2c(F)cccc2Cl)cc1`, which MIC [7] is on record?
A: Its MIC is > 200 µM.

Q: Which MIC [7] does the source give for `COc1ccc(C(=O)CCC(=O)N2CCC(c3nc(C(=O)Nc4ccc(O)c(C)c4C)cs3)CC2)cc1` here?
A: The MIC was > 200 µM.

Q: How did the MIC [7] turn out when `CC[C@@H]1C(=O)OC[C@@H]1Cc1cncn1C` [PILOCARPINE] was run?
A: Its MIC is > 200 µM.

Q: For `Cc1ccc(C(=O)N(C)Cc2ccco2)c(C2CCN(C(=O)c3cc4c(C)nn(C)c4s3)CC2)n1`, which MIC [7] is on record?
A: The MIC was > 200 µM.

Q: `COc1ccc(-c2sc(/N=C/c3cc(Br)cc(Br)c3O)c(C#N)c2C)cc1OC` was tested. Which MIC [8] did it give?
A: The MIC was > 100 µM.

Q: For `CN(CCC#N)c1ccc(/C=C2\CC/C(=C\c3ccc(N(C)CCC#N)cc3)C2=O)cc1`, which MIC [7] is on record?
A: Its MIC is > 200 µM.

Q: For `Cc1cccc(C(=O)Nc2sc3c(c2C(N)=O)CCCC3)c1`, which MIC50 [19] is on record?
A: Its MIC50 is 50 µM (≈ 15.7 µg/mL).

Q: And the MIC [7]?
A: Its MIC is > 200 µM.

Q: `CN(CCC#N)c1ccc(C=C(C#N)C#N)cc1` was tested. Which MIC [7] did it give?
A: Its MIC is > 200 µM.

Q: For `N#CCN1CCN(c2nc3ccc(Cl)cc3s2)CC1`, which MIC [7] is on record?
A: The MIC was > 200 µM.

Q: What about the MIC50 [7] of the same compound?
A: Its MIC50 is 27 µM (≈ 7.91 µg/mL).

Q: Which MIC [7] does the source give for `Cc1ccc(C(=O)N(C)Cc2ccco2)c(C2CCN(C(=O)c3cc(C)c(C)o3)CC2)n1` here?
A: The MIC was > 200 µM.

Q: `COC(C)(C)CCSc1nc2ccc(NC(=O)CCCC(=O)NCc3ccco3)cc2s1` was tested. Which MIC [7] did it give?
A: The MIC was > 200 µM.

Q: How did the MIC [13] turn out when `Clc1ccc(COC(Cn2ccnc2)c2ccc(Cl)cc2Cl)c(Cl)c1` (stereo unspecified) [MICONAZOLE] was run?
A: Its MIC is 76.9 µM (≈ 32 µg/mL).

Q: How did the MIC [7] turn out when `O=C(CC(Sc1ccc2ccccc2c1)c1ccsc1)c1ccc(Cl)cc1` (stereo unspecified) was run?
A: The MIC was > 200 µM.

Q: Which MIC [7] does the source give for `N#CC(c1ccc2c(c1)OCO2)N(Cc1ccccc1)C(=O)c1sc2ccccc2c1Cl` (stereo unspecified) here?
A: The MIC was > 200 µM.

Q: Which “growth inhibition (GI)” value [20] does the source give for `CC(=O)N1CCN(c2ccc(OCC3COC(Cn4ccnc4)(c4ccc(Cl)cc4Cl)O3)cc2)CC1` (stereo unspecified) here?
A: The value was “Active”.

Q: What about the Activity [21] of the same compound?
A: Its Activity is “inactive”.

Q: And the “growth inhibition (GI)” value [22]?
A: Its value is “Active”.

Q: And the Activity [23]?
A: The Activity was “inactive”.

Q: How did the MIC [7] turn out when `CCCN(CCC)S(=O)(=O)c1ccc(C(=O)N/N=C/c2ccc(N(C)CCC#N)cc2)cc1` was run?
A: Its MIC is > 200 µM.

Q: How did the MIC [7] turn out when `Clc1ccc(Cc2ccncc2)cc1` was run?
A: The MIC was 150 µM (≈ 30.6 µg/mL).

Q: And the MIC50 [7]?
A: The MIC50 was 18 µM (≈ 3.67 µg/mL).

Q: How did the MIC [7] turn out when `CCOC(=O)/C(C#N)=C/c1ccc(N(C)CCC#N)cc1` was run?
A: Its MIC is > 200 µM.

Q: With `CN(CCC#N)c1ccc(/C=N/c2ccc(C(=O)O)cc2)cc1` as the compound, how does the MIC [7] read?
A: The MIC was > 200 µM.

Q: Which MIC [7] does the source give for `COc1ccc(CC2c3cc(OC)c(OC)cc3CCN2C=C(C#N)C#N)cc1OC` (stereo unspecified) here?
A: Its MIC is > 200 µM.

Q: What does the source list for `Cc1nn(C)c(=O)c2noc(/C=C/c3ccsc3)c12`?
A: Activity [21]: inactive; MIC [7]: 120 µM (≈ 32.8 µg/mL); MIC50 [7]: 35 µM (≈ 9.57 µg/mL); Activity [23]: inactive

Q: With `Cc1nc(SCc2c(F)cccc2Cl)c(C#N)c(C)c1Cc1c(F)cccc1Cl` as the compound, how does the MIC [7] read?
A: Its MIC is > 200 µM.

Q: Which MIC [7] does the source give for `Cc1ccc(Cc2cc(C)ncc2C)c(C)c1` here?
A: The MIC was 100 µM (≈ 22.5 µg/mL).

Q: And the MIC50 [7]?
A: Its MIC50 is 14 µM (≈ 3.15 µg/mL).
